Test results: publication PMC8213057, “Targeting ALK2: An Open Science Approach to Developing Therapeutics for the Treatment of Diffuse Intrinsic Pontine Glioma” (Journal of Medicinal Chemistry, 2020)

Key:
FYN = FYN (Homo sapiens, UniProt P06241); settings: 1 μM; Run 1, Run 2
NEK4 = NEK4 (Homo sapiens, UniProt P51957); settings: 1 μM; Run 1, Run 2
MEKK1 = MEKK1 (Homo sapiens, UniProt Q13233); settings: 1 μM; Run 1, Run 2
MNK1 = MNK1 (Homo sapiens, UniProt Q9BUB5); settings: 1 μM; Run 1, Run 2
KSR1 = target: T1, KSR1 (Homo sapiens, UniProt Q8IVT5); assay: biochemical; settings: read-out: % enzyme activity, 1 μM; Run 1, Run 2
T1 sequence (Q8IVT5 1-923): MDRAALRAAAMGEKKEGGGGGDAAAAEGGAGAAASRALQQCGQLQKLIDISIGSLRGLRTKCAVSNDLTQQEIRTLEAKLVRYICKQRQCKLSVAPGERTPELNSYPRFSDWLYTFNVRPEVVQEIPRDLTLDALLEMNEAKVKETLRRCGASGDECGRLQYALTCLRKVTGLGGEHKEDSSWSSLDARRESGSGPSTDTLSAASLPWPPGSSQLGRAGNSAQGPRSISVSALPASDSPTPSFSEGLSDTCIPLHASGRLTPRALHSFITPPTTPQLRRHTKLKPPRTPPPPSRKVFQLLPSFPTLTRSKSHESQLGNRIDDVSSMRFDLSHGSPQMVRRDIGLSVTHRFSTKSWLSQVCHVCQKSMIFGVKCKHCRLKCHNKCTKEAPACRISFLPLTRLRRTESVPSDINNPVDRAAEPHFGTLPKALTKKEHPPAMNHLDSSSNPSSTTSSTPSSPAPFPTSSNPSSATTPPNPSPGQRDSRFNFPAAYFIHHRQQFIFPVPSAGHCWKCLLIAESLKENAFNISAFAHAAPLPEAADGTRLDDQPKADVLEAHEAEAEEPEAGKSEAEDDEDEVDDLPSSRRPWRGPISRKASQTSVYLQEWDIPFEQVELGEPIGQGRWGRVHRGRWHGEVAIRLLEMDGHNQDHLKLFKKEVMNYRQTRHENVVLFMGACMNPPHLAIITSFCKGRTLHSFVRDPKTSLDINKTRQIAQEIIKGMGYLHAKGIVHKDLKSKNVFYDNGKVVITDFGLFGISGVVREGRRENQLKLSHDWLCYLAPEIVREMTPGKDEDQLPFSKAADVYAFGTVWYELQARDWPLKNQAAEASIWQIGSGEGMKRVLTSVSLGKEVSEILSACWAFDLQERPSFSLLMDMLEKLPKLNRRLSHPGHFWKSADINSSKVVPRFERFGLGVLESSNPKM

TYK1/LTK = TYK1/LTK (Homo sapiens, UniProt P29376); settings: 1 μM; Run 1, Run 2
p70S6Kb/RPS6KB2 = p70S6Kb/RPS6KB2 (Homo sapiens, UniProt Q9UBS0); assay: biochemical; settings: read-out: % enzyme activity, 1 μM; Run 1, Run 2
PAK3 = PAK3 (Homo sapiens, UniProt O75914); settings: 1 μM; Run 1, Run 2
NEK1 = target: T2, NEK1 (Homo sapiens, UniProt Q96PY6); settings: 1 μM; Run 1, Run 2
T2 sequence (Q96PY6 1-1258): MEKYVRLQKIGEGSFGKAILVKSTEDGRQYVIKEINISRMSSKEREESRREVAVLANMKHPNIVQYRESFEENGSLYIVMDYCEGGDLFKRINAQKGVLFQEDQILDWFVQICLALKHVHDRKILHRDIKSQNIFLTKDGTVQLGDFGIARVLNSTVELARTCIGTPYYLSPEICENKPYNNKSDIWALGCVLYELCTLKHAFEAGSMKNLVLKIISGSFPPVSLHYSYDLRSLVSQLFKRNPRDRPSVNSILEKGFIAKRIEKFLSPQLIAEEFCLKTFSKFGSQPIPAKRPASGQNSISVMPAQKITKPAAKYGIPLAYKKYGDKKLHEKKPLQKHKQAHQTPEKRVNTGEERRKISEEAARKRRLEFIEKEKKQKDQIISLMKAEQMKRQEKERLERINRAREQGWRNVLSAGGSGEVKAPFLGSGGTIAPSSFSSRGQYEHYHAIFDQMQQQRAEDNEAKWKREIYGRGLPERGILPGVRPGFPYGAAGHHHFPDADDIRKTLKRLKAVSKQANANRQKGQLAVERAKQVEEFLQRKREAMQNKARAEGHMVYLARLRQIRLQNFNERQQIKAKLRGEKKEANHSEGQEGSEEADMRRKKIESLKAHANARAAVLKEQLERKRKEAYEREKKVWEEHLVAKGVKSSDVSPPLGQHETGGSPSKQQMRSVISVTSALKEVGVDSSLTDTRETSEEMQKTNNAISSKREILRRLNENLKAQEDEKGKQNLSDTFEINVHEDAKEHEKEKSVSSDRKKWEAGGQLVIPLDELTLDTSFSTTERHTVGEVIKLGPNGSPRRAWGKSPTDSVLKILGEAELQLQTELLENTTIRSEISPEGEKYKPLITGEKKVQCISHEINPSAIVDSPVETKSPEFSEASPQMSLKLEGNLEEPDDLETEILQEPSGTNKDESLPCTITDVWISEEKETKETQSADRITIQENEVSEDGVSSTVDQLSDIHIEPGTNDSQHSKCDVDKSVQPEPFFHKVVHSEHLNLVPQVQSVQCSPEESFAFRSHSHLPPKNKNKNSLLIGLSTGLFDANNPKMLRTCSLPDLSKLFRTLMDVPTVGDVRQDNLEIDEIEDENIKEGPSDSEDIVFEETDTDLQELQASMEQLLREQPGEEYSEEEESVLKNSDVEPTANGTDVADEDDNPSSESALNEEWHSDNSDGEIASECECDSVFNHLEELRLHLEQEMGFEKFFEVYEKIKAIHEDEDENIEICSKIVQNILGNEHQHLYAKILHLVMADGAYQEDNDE

STK32B/YANK2 = STK32B/YANK2 (Homo sapiens, UniProt Q9NY57); settings: 1 μM; Run 1, Run 2
IGF1R = IGF1R (Homo sapiens, UniProt P08069); assay: biochemical; settings: read-out: % enzyme activity, 1 μM; Run 1, Run 2

PAK3, sequence (O75914 whole entry): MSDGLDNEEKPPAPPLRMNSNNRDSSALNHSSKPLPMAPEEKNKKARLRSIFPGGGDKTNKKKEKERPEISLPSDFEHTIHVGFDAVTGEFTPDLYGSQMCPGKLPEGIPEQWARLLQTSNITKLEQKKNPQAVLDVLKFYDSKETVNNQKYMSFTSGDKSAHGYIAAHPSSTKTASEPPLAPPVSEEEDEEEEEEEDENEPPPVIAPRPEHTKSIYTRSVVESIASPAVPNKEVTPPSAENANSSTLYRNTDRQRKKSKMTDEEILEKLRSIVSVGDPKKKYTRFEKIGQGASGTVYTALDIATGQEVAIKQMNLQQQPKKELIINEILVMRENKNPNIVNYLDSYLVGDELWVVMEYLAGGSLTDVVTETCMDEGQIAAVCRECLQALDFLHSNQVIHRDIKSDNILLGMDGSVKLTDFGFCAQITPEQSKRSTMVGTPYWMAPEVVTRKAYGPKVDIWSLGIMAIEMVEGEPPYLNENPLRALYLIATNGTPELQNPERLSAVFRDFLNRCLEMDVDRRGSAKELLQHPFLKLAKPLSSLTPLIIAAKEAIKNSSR
STK32B/YANK2, sequence (Q9NY57 whole entry): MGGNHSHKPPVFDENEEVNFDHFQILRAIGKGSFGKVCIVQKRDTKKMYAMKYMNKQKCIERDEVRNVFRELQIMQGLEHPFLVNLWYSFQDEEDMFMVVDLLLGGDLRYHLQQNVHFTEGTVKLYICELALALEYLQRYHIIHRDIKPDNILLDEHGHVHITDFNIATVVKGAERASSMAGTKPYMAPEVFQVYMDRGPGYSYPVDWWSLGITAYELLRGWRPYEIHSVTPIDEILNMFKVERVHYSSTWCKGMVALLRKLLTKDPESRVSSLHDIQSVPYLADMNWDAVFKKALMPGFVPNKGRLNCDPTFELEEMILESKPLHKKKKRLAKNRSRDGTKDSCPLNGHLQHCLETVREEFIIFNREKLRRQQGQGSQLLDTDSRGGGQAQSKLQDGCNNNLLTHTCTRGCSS
NEK4, sequence (P51957 whole entry): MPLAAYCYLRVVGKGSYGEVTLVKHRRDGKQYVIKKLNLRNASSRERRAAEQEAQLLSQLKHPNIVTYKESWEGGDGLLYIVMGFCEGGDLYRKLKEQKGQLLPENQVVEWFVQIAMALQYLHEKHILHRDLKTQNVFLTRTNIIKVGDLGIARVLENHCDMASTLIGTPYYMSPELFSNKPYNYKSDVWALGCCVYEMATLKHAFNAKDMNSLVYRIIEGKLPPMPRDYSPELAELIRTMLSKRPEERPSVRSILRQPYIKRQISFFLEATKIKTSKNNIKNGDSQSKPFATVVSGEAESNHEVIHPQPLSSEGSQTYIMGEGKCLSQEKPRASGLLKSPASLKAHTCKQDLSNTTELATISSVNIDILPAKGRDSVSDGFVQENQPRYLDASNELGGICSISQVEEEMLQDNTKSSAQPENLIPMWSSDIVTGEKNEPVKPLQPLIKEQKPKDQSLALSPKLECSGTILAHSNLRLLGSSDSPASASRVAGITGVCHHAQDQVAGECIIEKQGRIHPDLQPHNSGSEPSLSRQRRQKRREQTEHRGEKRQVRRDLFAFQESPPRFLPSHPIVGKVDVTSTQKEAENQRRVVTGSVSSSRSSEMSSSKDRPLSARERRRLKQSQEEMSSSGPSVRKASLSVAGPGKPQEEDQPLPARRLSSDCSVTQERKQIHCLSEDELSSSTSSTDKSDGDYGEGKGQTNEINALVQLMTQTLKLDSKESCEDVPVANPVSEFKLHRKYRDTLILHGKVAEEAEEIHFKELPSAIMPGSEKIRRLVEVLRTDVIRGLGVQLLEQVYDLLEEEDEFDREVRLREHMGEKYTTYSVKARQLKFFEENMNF
TYK1/LTK, sequence (P29376 17-864): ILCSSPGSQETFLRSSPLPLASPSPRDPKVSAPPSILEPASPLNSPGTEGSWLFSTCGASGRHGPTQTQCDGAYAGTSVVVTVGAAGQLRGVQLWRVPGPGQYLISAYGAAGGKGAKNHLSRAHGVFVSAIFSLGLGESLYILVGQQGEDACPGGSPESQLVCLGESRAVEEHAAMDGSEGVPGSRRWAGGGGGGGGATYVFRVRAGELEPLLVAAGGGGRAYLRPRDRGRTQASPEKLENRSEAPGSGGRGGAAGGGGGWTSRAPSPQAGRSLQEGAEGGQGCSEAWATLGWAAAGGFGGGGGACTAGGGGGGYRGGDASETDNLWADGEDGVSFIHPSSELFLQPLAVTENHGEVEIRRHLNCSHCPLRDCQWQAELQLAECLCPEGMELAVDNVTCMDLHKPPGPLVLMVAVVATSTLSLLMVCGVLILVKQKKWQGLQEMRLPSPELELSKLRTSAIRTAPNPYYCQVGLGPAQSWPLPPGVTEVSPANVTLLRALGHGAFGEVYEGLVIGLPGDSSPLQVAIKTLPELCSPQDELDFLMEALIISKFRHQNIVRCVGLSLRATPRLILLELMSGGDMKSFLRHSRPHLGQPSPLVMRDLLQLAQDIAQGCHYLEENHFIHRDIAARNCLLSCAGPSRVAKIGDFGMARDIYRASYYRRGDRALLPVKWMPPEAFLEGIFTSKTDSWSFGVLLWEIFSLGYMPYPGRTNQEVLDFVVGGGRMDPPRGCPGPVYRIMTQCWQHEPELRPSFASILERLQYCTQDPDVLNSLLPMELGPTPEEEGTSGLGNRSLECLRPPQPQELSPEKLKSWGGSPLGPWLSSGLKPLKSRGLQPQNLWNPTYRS
p70S6Kb/RPS6KB2, sequence (Q9UBS0 whole entry): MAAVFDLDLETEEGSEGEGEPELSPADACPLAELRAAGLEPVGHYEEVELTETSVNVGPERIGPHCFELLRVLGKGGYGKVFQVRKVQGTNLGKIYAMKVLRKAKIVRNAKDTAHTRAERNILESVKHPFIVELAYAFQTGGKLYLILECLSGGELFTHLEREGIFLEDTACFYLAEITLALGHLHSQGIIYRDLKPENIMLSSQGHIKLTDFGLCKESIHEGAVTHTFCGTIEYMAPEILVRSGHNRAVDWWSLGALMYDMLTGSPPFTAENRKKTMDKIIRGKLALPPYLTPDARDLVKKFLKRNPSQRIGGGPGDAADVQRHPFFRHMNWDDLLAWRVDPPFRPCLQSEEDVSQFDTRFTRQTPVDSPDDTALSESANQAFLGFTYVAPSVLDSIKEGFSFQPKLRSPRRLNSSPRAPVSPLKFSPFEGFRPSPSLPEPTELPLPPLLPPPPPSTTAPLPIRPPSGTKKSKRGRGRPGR
FYN, sequence (P06241 whole entry): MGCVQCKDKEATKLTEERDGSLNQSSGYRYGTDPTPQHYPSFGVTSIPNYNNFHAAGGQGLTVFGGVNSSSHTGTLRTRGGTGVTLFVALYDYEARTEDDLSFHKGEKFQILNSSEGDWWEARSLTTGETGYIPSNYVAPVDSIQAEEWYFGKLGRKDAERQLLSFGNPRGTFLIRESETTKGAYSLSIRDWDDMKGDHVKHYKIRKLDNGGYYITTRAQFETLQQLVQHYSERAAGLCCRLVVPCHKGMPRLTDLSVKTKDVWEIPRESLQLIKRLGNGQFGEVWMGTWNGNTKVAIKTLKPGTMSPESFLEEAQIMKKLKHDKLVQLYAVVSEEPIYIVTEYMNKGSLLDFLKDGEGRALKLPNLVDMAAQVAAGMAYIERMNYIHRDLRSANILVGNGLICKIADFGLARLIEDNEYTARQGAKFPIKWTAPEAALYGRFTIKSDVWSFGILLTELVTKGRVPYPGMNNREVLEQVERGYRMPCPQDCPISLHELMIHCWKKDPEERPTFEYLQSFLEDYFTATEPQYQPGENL
MNK1, sequence (Q9BUB5 whole entry): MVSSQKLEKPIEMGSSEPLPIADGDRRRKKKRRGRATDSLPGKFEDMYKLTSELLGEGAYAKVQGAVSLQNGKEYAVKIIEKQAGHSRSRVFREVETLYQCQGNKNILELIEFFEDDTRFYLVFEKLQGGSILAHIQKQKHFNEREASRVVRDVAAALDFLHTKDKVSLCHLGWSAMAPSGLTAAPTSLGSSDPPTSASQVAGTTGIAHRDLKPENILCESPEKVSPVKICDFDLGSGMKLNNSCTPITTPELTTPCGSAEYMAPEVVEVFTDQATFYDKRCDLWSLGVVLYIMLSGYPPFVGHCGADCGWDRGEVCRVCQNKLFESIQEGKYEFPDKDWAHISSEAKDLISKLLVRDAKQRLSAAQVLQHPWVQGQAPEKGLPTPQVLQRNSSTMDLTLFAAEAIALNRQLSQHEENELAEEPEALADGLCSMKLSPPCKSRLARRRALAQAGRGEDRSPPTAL

| SMILES | % enzyme activity (FYN) | % enzyme activity (NEK4) | % enzyme activity (MEKK1) | % enzyme activity (MNK1) | remaining activity at 1 µM (KSR1) | % enzyme activity (TYK1/LTK) | remaining activity at 1 µM (p70S6Kb/RPS6KB2) | % enzyme activity (PAK3) | % enzyme activity (NEK1) | % enzyme activity (STK32B/YANK2) | remaining activity at 1 µM (IGF1R) |
| --- | --- | --- | --- | --- | --- | --- | --- | --- | --- | --- | --- |
| COc1cc(-c2cncc(-c3ccc(N4CCN(C)CC4)cc3)c2C)cc(F)c1C(N)=O [Compound 26a, 2-Fluoro-6-methoxy-4-(4-methyl-5-(4-(4-methylpiperazin-1-yl)phenyl)pyridin-3-yl)benzamide] | 97.69% | 97.67% | 92.92% | 50.34% | 94.5% | 99.76% | 97.3% | 87.14% | 84.54% | 87.20% | 99.2% |
| COc1cc(-c2cncc(-c3ccc(N4C[C@@H](C)N(C)[C@@H](C)C4)cc3)c2C)cc(F)c1C(N)=O [Compound 26c, 2-Fluoro-6-methoxy-4-(4-methyl-5-(4-((3R,5S)-3,4,5-trimethylpiperazin-1-yl)phenyl)pyridin-3-yl)benzamide] | 96.30% | 97.25% | 97.31% | 70.81% | 96.3% | 99.99% | 102% | 124.21% | 84.46% | 94.20% | 96.1% |
